Laboratory results taken from patent US20130317096A1, “SYNERGISTIC INTERACTION OF AT LEAST ONE VITAMIN E COMPONENT AND TYROSINASE INHIBITORS FOR DERMATOLOGICAL APPLICATIONS” (Davos Life Science Pte Ltd, priority 2010, published 2013).
“Also recorded” adds a separate entry of the source.

Key:
[1] = tested on: tyrosinase; test: Western blot of tyrosinase protein expression in B16 melanoma cells; assay type: cell-based, mouse; conditions: for tyrosinase protein expression: 20 μM treatment; for tyrosinase protein suppression, dose response and relative potency: increasing dosage; for time response of tyrosinase suppression: single dose, 24 hrs versus 48 hrs
Description: Carcinogenesis, 2006, 27, 2180-9. Briefly, cell lysates were prepared by suspending cell pellets in lysis buffer (50 mmol/l Tris-HCl [pH 8.0], 150 mmol/l NaCl, 1% NP40, 0.5% deoxycholate, 0.1% SDS, […], 1 μg/ml leupeptin, and 1 mmol/l phenylmethylsulfonyl fluoride). The protein concentration was measured using the DC Protein Assay kit (Bio-Rad, Hercules, Calif., USA). An equal amount of protein (30 μg) was loaded onto a 10% SDS polyacrylamide gel for electrophoresis, then transferred onto a polyvinylidene difluoride membrane (Amersham, Piscataway, N.J., USA). The membrane was then incubated with primary antibodies for 1 hr at room temperature against tyrosinase, Id1, and beta-actin (Santa Cruz Biotechnology, Inc., Santa Cruz, Calif., USA). After incubation with appropriate secondary antibodies, signals were visualized by an ECL Western blotting system (Amersham). The expression of β-actin was assessed as an internal loading control for total cell lysate.

[2] = tested on: B16 melanoma cells; test: MTT cell viability assay; assay type: cell-based, mouse; conditions: 24 hrs of treatment, increasing dosages
Description: B16 mouse melanoma cells were purchased from (ATCC, Manassas, Va., USA).
The base medium for the cell line was Dulbecco's modified Eagle's medium (DMEM). To make the complete growth medium, fetal bovine serum (final concentration, 10%) was added to the base medium. Tocotrienol (T3) and tocopherol (TP) isomers and the palm tocotrienol-rich fraction (TRF) were purified from a palm fatty acid distillate (PFAD) using molecular distillation and Novasep® equipment (Novasep, Pompey, France). The extraction facility is located in Tuas, Singapore. The PFAD feed was purchased from Kuala Lumpur Kepong Berhad (Kuala Lumpur, Malaysia). The purity of the vitamin E isomers was verified by HPLC and gas chromatography (GC) percentage peak area.
For the cell viability study, 5×10^3 cells re-suspended in 100 μl of medium were plated into each well of a 96-well plate. The cells were then treated with different concentrations of the vitamin-E isomers for 24 hrs. After the treatment, 20 μl of MTT solution (1 mg/ml in PBS; Sigma-Aldrich, St. Louis, Mo., USA) was added to each well and the cells were incubated at 37° C. for 2 hrs. The formazan crystals were then re-suspended in 200 μl of DMSO and the intensity at 595 nm was measured.

## CC(C)=CCC/C(C)=C/CC/C(C)=C/CCC1(C)CCc2cc(O)c(C)c(C)c2O1 (stereo not shown) [γ-tocotrienol, 7,8-dimethyltocotrienol]
[1]; listed as γ-T3
  tyrosinase protein expression: remarkable suppression of tyrosinase protein expression
  tyrosinase protein suppression, dose response and relative potency: significant suppression of tyrosinase in a dose-dependent manner
  time response of tyrosinase suppression: enhanced by increasing the treatment period from 24 to 48 hrs
[1]; listed as γT3
  tyrosinase protein expression: suppresses tyrosinase protein expression
  tyrosinase protein suppression, dose response and relative potency: stronger
  time response of tyrosinase suppression: enhanced after a 48 hr incubation period
[2]
  B16 melanoma cell viability / proliferation rate: inhibited the proliferation rate of B16 melanoma cells in a dose-dependent fashion; also recorded: inhibit B16 melanoma cell viability at high concentrations
